According to the supplement of paper PMC10883282:
± gives the standard deviation of the averaged measurements.

Test system: SW872
Experiment: relative viability vs DMSO control (72 h) (fraction); higher = more viable cells
Method in brief: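 After seeding at densities set for 80–90% confluence in 384-well plates, sarcoma cell lines waited 24 h before 2.5 µl of serially diluted compound was added. Source plates held 10 mM down to 0.0002 mM. Plates were incubated 72 h at 37 °C with 5% CO2, with 0.1% DMSO vehicle and a 5 µM positive control, and relative viability was taken from ATPLite as percent growth averaged over up to triplicate wells, with 1 set as full and 0 as none.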

For C[C@@H]1CCN(C(=O)CC#N)C[C@@H]1N(C)c1ncnc2[nH]ccc12 [Tofacitinib], the relative viability (0.00017 µM) was 1.12 ± 0.03, the relative viability (0.00051 µM) was 1.08 ± 0.035 and the relative viability (0.00152 µM) was 1.1 ± 0.028. The relative viability (0.00457 µM) was 1.09 ± 0.056, the relative viability (0.01372 µM) was 1.08 ± 0.032 and the relative viability (0.04115 µM) was 1.04 ± 0.081. For the same compound, the relative viability (0.1235 µM) was 1.03 ± 0.056, the relative viability (0.3704 µM) was 1.02 ± 0.063 and the relative viability (1.111 µM) was 0.946 ± 0.068. It also gave a relative viability (3.333 µM) of 0.887 ± 0.095 and a relative viability (10 µM) of 0.747 ± 0.064.
CC[C@H](Nc1ncnc2[nH]cnc12)c1nc2cccc(F)c2c(=O)n1-c1ccccc1 [Idelalisib] was tested, and the relative viability (0.00017 µM) was 1.09 ± 0.073, the relative viability (0.00051 µM) was 1.13 ± 0.052 and the relative viability (0.00152 µM) was 1.1 ± 0.034. For the same compound, the relative viability (0.00457 µM) was 1.1 ± 0.046, the relative viability (0.01372 µM) was 1.11 ± 0.052 and the relative viability (0.04115 µM) was 1.08 ± 0.055. For the same compound, the relative viability (0.1235 µM) was 1.07 ± 0.066, the relative viability (0.3704 µM) was 1.04 ± 0.087 and the relative viability (1.111 µM) was 0.945 ± 0.043. The relative viability (3.333 µM) was 0.876 ± 0.051 and the relative viability (10 µM) was 0.746 ± 0.036.
COc1cc2nccc(Oc3ccc(NC(=O)Nc4cc(C)on4)c(Cl)c3)c2cc1OC [Tivozanib] showed a relative viability (0.00017 µM) of 1.07 ± 0.073, a relative viability (0.00051 µM) of 1.07 ± 0.026 and a relative viability (0.00152 µM) of 1.04 ± 0.031. The relative viability (0.00457 µM) was 1.06 ± 0.038, the relative viability (0.01372 µM) was 1.08 ± 0.031 and the relative viability (0.04115 µM) was 1.09 ± 0.039. It also gave a relative viability (0.1235 µM) of 1.08 ± 0.044, a relative viability (0.3704 µM) of 1.1 ± 0.051 and a relative viability (1.111 µM) of 1.07 ± 0.028. The relative viability (3.333 µM) was 1.03 ± 0.036 and the relative viability (10 µM) was 0.691 ± 0.031.
Work on COc1cc2c(cc1O)CCN[C@]21CS[C@@H]2c3c(OC(C)=O)c(C)c4c(c3[C@H](COC1=O)N1[C@@H]2[C@H]2c3c(cc(C)c(OC)c3O)C[C@@H]([C@@H]1O)N2C)OCO4 [Trabectedin] yielded a relative viability (2 pM) of 1.045 ± 0.0069, a relative viability (5 pM) of 0.986 ± 0.05 and a relative viability (15 pM) of 0.835 ± 0.034. It also gave a relative viability (50 pM) of 0.606 ± 0.1, a relative viability (0.00014 µM) of 0.281 ± 0.028 and a relative viability (0.00041 µM) of 0.158 ± 0.0096. It also gave a relative viability (0.0012 µM) of 0.202 ± 0.01, a relative viability (0.0037 µM) of 0.245 ± 0.0073 and a relative viability (0.011 µM) of 0.183 ± 0.0041. It also gave a relative viability (200 fM) of 1.03 ± 0.037 and a relative viability (600 fM) of 1.038 ± 0.0094.
N#CC[C@H](C1CCCC1)n1cc(-c2ncnc3[nH]ccc23)cn1 [Ruxolitinib] gave a relative viability (0.00017 µM) of 1.02 ± 0.032, a relative viability (0.00051 µM) of 1.048 ± 0.0078 and a relative viability (0.00152 µM) of 1.052 ± 0.009. For the same compound, the relative viability (0.00457 µM) was 1.01 ± 0.014, the relative viability (0.01372 µM) was 0.9983 ± 0.0075 and the relative viability (0.04115 µM) was 0.998 ± 0.038. The relative viability (0.1235 µM) was 0.974 ± 0.046, the relative viability (0.3704 µM) was 0.954 ± 0.059 and the relative viability (1.111 µM) was 0.914 ± 0.075. The relative viability (3.333 µM) was 0.886 ± 0.041 and the relative viability (10 µM) was 0.729 ± 0.024.
With Cc1cc(C)c(/C=C2\C(=O)Nc3ccccc32)[nH]1 [Semaxanib] the relative viability (0.00017 µM) was 0.968 ± 0.038, the relative viability (0.00051 µM) was 0.968 ± 0.024 and the relative viability (0.00152 µM) was 0.938 ± 0.084. For the same compound, the relative viability (0.00457 µM) was 0.933 ± 0.067, the relative viability (0.01372 µM) was 0.936 ± 0.062 and the relative viability (0.04115 µM) was 0.953 ± 0.067. For the same compound, the relative viability (0.1235 µM) was 0.979 ± 0.022, the relative viability (0.3704 µM) was 0.99 ± 0.028 and the relative viability (1.111 µM) was 0.963 ± 0.042. For the same compound, the relative viability (3.333 µM) was 0.972 ± 0.031 and the relative viability (10 µM) was 0.8936 ± 0.0083.
With O=C(Cc1ccc(-c2ccc(OCCN3CCOCC3)cc2)cn1)NCc1ccccc1 [KX2-391] the relative viability (0.00017 µM) was 1.06 ± 0.031, the relative viability (0.00051 µM) was 1.05 ± 0.037 and the relative viability (0.00152 µM) was 1.08 ± 0.029. The relative viability (0.00457 µM) was 1.03 ± 0.031, the relative viability (0.01372 µM) was 1.04 ± 0.034 and the relative viability (0.04115 µM) was 0.912 ± 0.049. For the same compound, the relative viability (0.1235 µM) was 0.504 ± 0.037, the relative viability (0.3704 µM) was 0.472 ± 0.029 and the relative viability (1.111 µM) was 0.435 ± 0.014. It also gave a relative viability (3.333 µM) of 0.443 ± 0.022 and a relative viability (10 µM) of 0.461 ± 0.028.
For COc1cc2c(Oc3ccc4[nH]c(C)cc4c3F)ncnc2cc1OCCCN1CCCC1 [Cediranib], the relative viability (0.00017 µM) was 1.04 ± 0.024, the relative viability (0.00051 µM) was 1.05 ± 0.039 and the relative viability (0.00152 µM) was 1.06 ± 0.042. It also gave a relative viability (0.00457 µM) of 1.05 ± 0.016, a relative viability (0.01372 µM) of 1.063 ± 0.0043 and a relative viability (0.04115 µM) of 1.04 ± 0.035. The relative viability (0.1235 µM) was 1.06 ± 0.027, the relative viability (0.3704 µM) was 1.03 ± 0.032 and the relative viability (1.111 µM) was 0.982 ± 0.022. It also gave a relative viability (3.333 µM) of 1.05 ± 0.021 and a relative viability (10 µM) of 1.026 ± 0.002.
Compound CO[C@H]1C[C@@H]2CC[C@@H](C)[C@@](O)(O2)C(=O)C(=O)N2CCCC[C@H]2C(=O)O[C@H]([C@H](C)C[C@@H]2CC[C@@H](OP(C)(C)=O)[C@H](OC)C2)CC(=O)[C@H](C)/C=C(\C)[C@@H](O)[C@@H](OC)C(=O)[C@H](C)C[C@H](C)/C=C/C=C/C=C/1C [Ridaforolimus] has a relative viability (0.00017 µM) of 0.974 ± 0.036, a relative viability (0.00051 µM) of 0.833 ± 0.034 and a relative viability (0.00152 µM) of 0.747 ± 0.021. It also gave a relative viability (0.00457 µM) of 0.7118 ± 0.0071, a relative viability (0.01372 µM) of 0.626 ± 0.035 and a relative viability (0.04115 µM) of 0.6 ± 0.034. It also gave a relative viability (0.1235 µM) of 0.5981 ± 0.0039, a relative viability (0.3704 µM) of 0.597 ± 0.0072 and a relative viability (1.111 µM) of 0.579 ± 0.012. For the same compound, the relative viability (3.333 µM) was 0.565 ± 0.017 and the relative viability (10 µM) was 0.565 ± 0.015.
For Cc1cnc(Nc2ccc(OCCN3CCCC3)cc2)nc1Nc1cccc(S(=O)(=O)NC(C)(C)C)c1 [Fedratinib], the relative viability (0.00017 µM) was 1.04 ± 0.013, the relative viability (0.00051 µM) was 1.06 ± 0.027 and the relative viability (0.00152 µM) was 1.05 ± 0.034. The relative viability (0.00457 µM) was 1.01 ± 0.073, the relative viability (0.01372 µM) was 1.04 ± 0.044 and the relative viability (0.04115 µM) was 1.03 ± 0.075. It also gave a relative viability (0.1235 µM) of 0.942 ± 0.064, a relative viability (0.3704 µM) of 0.699 ± 0.049 and a relative viability (1.111 µM) of 0.408 ± 0.024. The relative viability (3.333 µM) was 0.16 ± 0.018 and the relative viability (10 µM) was 0.00193 ± 0.0011.
In the case of Cn1cc(-c2cc3c(N4CCN(c5ncc([C@@](C)(N)c6ccc(F)cc6)cn5)CC4)ncnn3c2)cn1 [Avapritinib], the relative viability (0.00017 µM) is reported as 0.913 ± 0.047, the relative viability (0.00051 µM) is reported as 0.95 ± 0.022 and the relative viability (0.00152 µM) is reported as 0.965 ± 0.041. For the same compound, the relative viability (0.00457 µM) was 0.939 ± 0.026, the relative viability (0.01372 µM) was 0.972 ± 0.036 and the relative viability (0.04115 µM) was 0.941 ± 0.035. The relative viability (0.1235 µM) was 0.953 ± 0.032, the relative viability (0.3704 µM) was 0.886 ± 0.038 and the relative viability (1.111 µM) was 0.846 ± 0.029. It also gave a relative viability (3.333 µM) of 0.766 ± 0.038 and a relative viability (10 µM) of 0.67 ± 0.028.
With CN1CCN(c2ccc3nc(-c4c(N)c5c(F)cccc5[nH]c4=O)[nH]c3c2)CC1 [Dovitinib] the relative viability (0.00017 µM) was 1.05 ± 0.054, the relative viability (0.00051 µM) was 1.04 ± 0.022 and the relative viability (0.00152 µM) was 1.06 ± 0.015. For the same compound, the relative viability (0.00457 µM) was 1.08 ± 0.018, the relative viability (0.01372 µM) was 1.06 ± 0.045 and the relative viability (0.04115 µM) was 1.05 ± 0.025. It also gave a relative viability (0.1235 µM) of 0.937 ± 0.097, a relative viability (0.3704 µM) of 0.891 ± 0.067 and a relative viability (1.111 µM) of 0.604 ± 0.03. The relative viability (3.333 µM) was 0.402 ± 0.023 and the relative viability (10 µM) was 0.235 ± 0.022.
